{"source": "patent US11583525B2", "about": "“Geranylgeranyltransferase I inhibitor for treatment of a PTEN defective cancer” (H. LEE MOFFITT CANCER CENTER AND RESEARCH INSTITUTE, INC., priority 2017, dated 2023)", "key": {"IP3R3": {"system": "IP3R3", "assay": "Serum-mediated degradation of IP3R3 in serum-starved, serum re-stimulated NHFs (immunoblotting)", "format": "cell-based, human", "details": "NHFs serum-starved 72 h, re-stimulated with serum; 10 μM MG132, 10 μM Eer1", "experimental": "24 h post-transfection, cells were treated with MG132 for 3 h before harvesting for immunoprecipitation and immunoblotting as indicated. WCL, whole-cell lysate from untransfected cells. […] After harvesting, cells were lysed, and cell membranes (CM) were isolated and immunoprecipitated with either a normal mouse IgG or an anti-Flag antibody. Subsequently, immunoprecipitates were analysed by immunoblotting as indicated. The results of these experiments (n=2) indicate that FBXL2 is incorporated into a complete SCF ligase that binds its substrate(s) at cellular membranes. […] After harvesting, cells were lysed and cytoplasmic (CYTO) and cell membrane (CM) fractions were isolated and analysed by immunoblotting as indicated. Actin and calnexin are used as markers for cytoplasmic and cell membrane fractions, respectively. This experiment was performed twice. […] 24 h post-transfection, where indicated, cells were treated with MG132 for 3 h before harvesting for immunoprecipitation and immunoblotting. Ned. CUL1, neddylated CUL1. […] The experiment was performed in the presence or absence of MG132 as indicated. Whole-cell lysates were immunoblotted as indicated. The asterisk indicates a non-specific band. This experiment was performed twice. […] P values were calculated by unpaired t-test. Error bars indicate s.e.m. […] Error bars indicate s.e.m. The values represent the ratios between FBXL2 and GAPDH mRNAs. […] Cells were subsequently stimulated with medium containing serum and harvested at the indicated times for immunoblotting. […] Error bars indicate s.e.m. […] Cells were subsequently stimulated with medium containing serum and harvested at the indicated time points for immunoblotting. […] Error bars indicate s.e.m. […] Exon 2 and exon 3 refer to the human FBXL2 gene in NC_000003.12 (GRCh38.p7 (Gene Bank ID: 3129728)). […]\nFIGS. 6A, 6B, 6C, 6D, 6E, 6F, 6G, and 6H that the degradation of IP3R3 is dependent on FBXL2 localization to cell membranes and on the segregase activity of p97. […] Samples were analysed by immunoblotting with the indicated antibodies. […]"}, "A549 cells": {"system": "A549 cells", "assay": "A549 cell xenografts in NOD/SCID gamma mice, GGTi-2418 alone or in combination with PDT", "format": "in vivo", "details": "50 mg kg-1 intratumoural injection", "source_text": "FIGS. 4A, 4B, 4C, and 4D show both a non-degradable IP3R3 mutant and GGTi-2418 sensitize tumours to PDT. […] Implanted xenotransplanted mice, chosen randomly, were subjected to two rounds of PDT (see arrows) or left untreated (UT); n=4-6 mice per group. Left panel, tumour growth kinetics at the indicated time points. Middle panel, representative tumours imaged with IRDye 2-DG at the end of the experiment. Top right panel, representative excised tumours imaged 60 days post-injection. Bottom right panel, quantification of tumour weights. P values for the tumour volume and weight at day 60 were calculated by one-way ANOVA and multiple-comparisons test. Error bars indicate s.e.m. […] Middle panel, quantification of apoptosis. […] AFU, arbitrary fluorescence units. P values were calculated by one-way ANOVA and multiple-comparisons test. […] Bottom right panel, quantification of tumour weights. P values for the tumour volume and weight at day 60 were calculated by one-way ANOVA and multiple-comparisons test. […] Middle panel, quantification of apoptosis. […] P values were calculated by one-way ANOVA and multiple-comparisons test. […]\nExperimental animals. […] Tumour growth was monitored daily, and tumour diameters were measured with callipers every other day. The tumour volume was calculated using the following equation: volume=π/6 ×(a×b2), where a is the major diameter and b is the minor diameter. […]"}}, "note": "“Also recorded” adds a separate entry of the source. Peptide text beside a SMILES is read from it. * marks the point of attachment. Cbz = O=C(OCc1ccccc1)*"}
{"smiles": "CC(C)C[C@@H](C=O)NC(=O)[C@H](CC(C)C)NC(=O)[C@H](CC(C)C)NC(=O)OCc1ccccc1", "note": "[MG132] (Cbz-Leu-Leu-Leu-aldehyde)", "values": [{"measurement": "IP3R3 levels / degradation after serum re-stimulation", "setting": "IP3R3", "value": "much less"}]}
{"smiles": "Cc1nc[nH]c1CN1CCN(C(=O)N[C@@H](CC(C)C)C(=O)O)[C@@H](Cc2ccccc2)C1=O", "note": "[GGTi-2418]", "values": [{"measurement": "growth rate of xenografts", "setting": "A549 cells; GGTi-2418 by itself, two rounds of five consecutive days", "value": "only modestly affected the growth rate of xenografts"}, {"measurement": "sensitization of tumour xenografts to PDT (tumour growth, weight, apoptosis)", "setting": "A549 cells; GGTi-2418 in combination with PDT", "value": "sensitizes xenotransplanted tumours to photodynamic therapy; also recorded: significantly sensitized tumour xenografts to PDT"}]}
